The nature of data set [1]: antipentylenetetrazol test (pentylenetetrazol 125 mg/kg s.c.). Conditions: sc; SLC ddY male mouse, 20-24 g; pentylenetetrazol preliminarily administered at 125 mg/kg s.c.; read-out: ED50 anti-pentylenetetrazol test. The data set is classed as in vivo. As to the method: (§1) *^1 test animal: SLC ddY male mouse, 20-24 g of body weight
*^2 pentylenetetrazol was preliminarily administered at a dose of 125
mg per 1 kg of body weight in subcutaneous injection.

Data set [2] is described as follows: rotarod performance test. The format is in vivo. Particulars: SLC ddY male mouse, 20-24 g.
Description: as §1
(In general: The rotarod test checks motor coordination on a turning rod.)

Data set [3] can be described thus: acute lethality (LD50). Conditions: in vivo; DS male mouse, 20-24 g.

As usually defined, the ED50 is the midpoint of the dose-response relation. A word on the LD50: it is the dose expected to kill half of the subjects tested. A high value points to lower toxicity.

Structures can show the parent of a compound that is named as a salt. A value given as a limit tells only on which side of the number the result lay.

On to `CN1CCN=C(c2ccccc2)c2cc(Cl)ccc21` [medazepam, reference compound], for which the ED50 in data set [1] was 4.76 mg/kg; in data set [2], 104 mg/kg. In data set [3], this compound came in with an LD50 of more than 1000 mg/kg.
As to `Cc1nnc2n(c1=O)-c1ccc(Cl)cc1C(c1ccccc1Cl)OC2` (centres unmarked), the ED50 came to 0.75 mg/kg in data set [1] and 24.5 mg/kg in data set [2]. The same compound came in with an LD50 in data set [3] of more than 1000 mg/kg.
Regarding `CCOC1(c2ccccc2Cl)OCc2nnc(CN)n2-c2ccc(Cl)cc21` (centres unmarked) [drawing 27 (OC2H5, 1/2 succinate)], the ED50 was determined as 1.14 mg/kg in data set [1] and 33.5 mg/kg in data set [2]. This compound also showed an LD50 in data set [3] of more than 1000 mg/kg.
With `CN(C)C=C1N=C2COC(c3ccccc3Cl)c3cc(Cl)ccc3N2C1=O` (centres unmarked), the ED50 was determined as 1.6 mg/kg in data set [1] and 73.5 mg/kg in data set [2]. This compound also registered an LD50 in data set [3] of more than 1000 mg/kg.
Turning to `Cc1nnc2n1-c1ccc(Cl)cc1C(c1ccccc1Cl)OC2` (centres unmarked), the ED50 was determined as 0.74 mg/kg in data set [1] and 30.6 mg/kg in data set [2]. In data set [3], this compound returned an LD50 of more than 1000 mg/kg.
Consider `CN1CCN(C=C2N=C3COC(c4ccccc4Cl)c4cc(Cl)ccc4N3C2=O)CC1` (centres unmarked), for which the ED50 in data set [1] is 3.28 mg/kg; in data set [2] it was more than 100 mg/kg. The LD50 in data set [3] was more than 1000 mg/kg.
Take `CN1C(=O)CN=C(c2ccccc2)c2cc(Cl)ccc21` [diazepam, reference compound]: the results for the ED50 in data set [1] and in data set [2] were 1.2 mg/kg and 13.4 mg/kg, respectively.
As to `NCc1nnc2n1-c1ccc(Cl)cc1C(c1ccccc1Cl)OC2` (centres unmarked) [drawing 27 (H, hydrobromide)], the values for the ED50 in data set [1] and in data set [2] were 2.49 mg/kg and 24.1 mg/kg, respectively. This compound came in with an LD50 in data set [3] of more than 1000 mg/kg.

The values are drawn from patent US4297280A, “4,1-Benzoxazepines” (Shionogi & Co., Ltd., priority 1978, dated 1981).
